19 molecules from ChEMBL document CHEMBL5233261, “Recent accomplishments on the synthetic/biological facets of pharmacologically active 1H-1,2,3-triazoles” (Eur J Med Chem, 2021) can be followed below.

The IC50 is the concentration at which inhibition is half-maximal.

The subject of assay [1] is MCF7. Kind of assay: Anticancer activity against human MCF7 cells assessed as cell growth inhibition incubated for 48 hrs by MTT assay. Format: functional, cell-based. The settings on record: MCF7, 48 h.
The test system of assay [2] is Plasmodium falciparum. As to the kind of experiment: Antimalarial activity against Plasmodium falciparum 3D7 strain by MSF assay. Format: functional, organism-based.
Assay [3] concerns HeLa. As to the kind of experiment: Anticancer activity against human HeLa cells assessed as cell growth inhibition incubated for 48 hrs by MTT assay. In kind it is functional, cell-based. (In general: Tetrazolium assays rely on reduction of a dye to a coloured formazan, in cell work by metabolically active cells.)
The subject of assay [4] is HeLa. As to the kind of experiment: Anticancer activity against human HeLa cells assessed as cell growth inhibition incubated for 48 hrs by SRB assay. Format: functional, cell-based.
Assay [5] deals with MIA PaCa-2. Kind of assay: Anticancer activity against human MIA PaCa-2 cells assessed as cell growth inhibition incubated for 48 hrs by SRB assay. In kind it is functional, cell-based. The settings on record: MIA PaCa-2, 48 h.
In assay [6] the test system is MDA-MB-231. As to the kind of experiment: Anticancer activity against human MDA-MB-231 cells assessed as cell growth inhibition incubated for 48 hrs by MTT assay. Particulars: MDA-MB-231, 48 h. Format: functional, cell-based.
The subject of assay [7] is Mycobacterium tuberculosis. As to the kind of experiment: Antibacterial activity against Mycobacterium tuberculosis H37Rv ATCC 27294 strain assessed as bacterial growth inhibition by MABA Assay. In kind it is functional. A general note: The colour change of resazurin is a common sign of viable cells or microbes.
In assay [8] the test system is MCF7. As to the kind of experiment: Potency index, ratio of Tamoxifen IC50 to test compound IC50 for cytotoxicity against human MCF7 cells by MTT assay. Format: functional.
Assay [9] concerns MCF7. Kind of assay: Anticancer activity against human MCF7 cells assessed as cell growth inhibition incubated for 24 hrs by MTT assay. In kind it is functional, cell-based. Particulars: MCF7, 24 h.
Assay [10] has as its system Pseudomonas aeruginosa. As to the kind of experiment: Antibacterial activity against Pseudomonas aeruginosa assessed as bacterial growth inhibition. Format: functional.
In assay [11] the test system is Bacillus subtilis. Kind of assay: Antibacterial activity against Bacillus subtilis assessed as bacterial growth inhibition. In kind it is functional.
Assay [12] has as its system Candida albicans. As to the kind of experiment: Antifungal activity against Candida albicans assessed as […] growth inhibition. In kind it is functional.
Assay [13] concerns Staphylococcus epidermidis. Kind of assay: Antibacterial activity against Staphylococcus epidermidis assessed as bacterial growth inhibition. In kind it is functional.
Assay [14] concerns Aspergillus niger. Kind of assay: Antifungal activity against Aspergillus niger assessed as […] growth inhibition. In kind it is functional.
For assay [15], the system named is Escherichia coli. Kind of assay: Antibacterial activity against Escherichia coli assessed as bacterial growth inhibition. Format: functional.
Assay [16] relates to Plasmodium falciparum. Kind of assay: Antimalarial activity against Plasmodium falciparum 3D7 strain incubated for 40 hrs by Giemsa staining based microscopic analysis. Format: functional, organism-based. Particulars: 3D7, 40 h.
In assay [17] the test system is Plasmodium falciparum. Kind of assay: Antimalarial activity against Plasmodium falciparum RKL-2 strain incubated for 40 hrs by Giemsa staining based microscopic analysis. In kind it is functional, organism-based. The settings on record: RKL-2, 40 h.
In assay [18] the test system is Escherichia coli. Kind of assay: Antibacterial activity against Escherichia coli ATCC 11229 assessed as bacterial growth inhibition by agar well diffusion assay. In kind it is functional. A general note: In agar diffusion tests the substance spreads into inoculated agar from a disc or well.
Assay [19] has as its system Listeria. Kind of assay: Antibacterial activity against Listeria assessed as bacterial growth inhibition by agar well diffusion assay. In kind it is functional.
The test system of assay [20] is Staphylococcus aureus. As to the kind of experiment: Antibacterial activity against Staphylococcus aureus ATCC 6538 assessed as bacterial growth inhibition by agar well diffusion assay. In kind it is functional.
Assay [21] concerns Plasmodium berghei. As to the kind of experiment: In vivo antimalarial activity against Plasmodium berghei infected in swiss albino mouse at 50 microg/kg, ip administered as single dose for 4 to 6 weeks relative to control. In kind it is functional. Particulars: dose 50 µg/kg, time 4-6 weeks.
Assay [22] concerns Mycobacterium tuberculosis. As to the kind of experiment: Antibacterial activity against Mycobacterium tuberculosis H37Rv MTCC 200 strain assessed as bacterial growth inhibition. In kind it is functional.
For assay [23], the system named is MCF7. Kind of assay: Anticancer activity against human MCF7 cells assessed as cell growth inhibition incubated for 24 hrs by ELISA assay. Format: functional, cell-based. The settings on record: MCF7, 24 h.
[24] abbreviates: Pseudomonas aeruginosa, read-out: MIC.

SMILES strings stand for the structures. In brackets after ≈: the same amount, converted by molar mass. A value given as a limit tells only on which side of the number the result lay.

As to `N#CC1=C(N)Oc2cc3c(cc2C12C(=O)N(Cc1cn(Cc4ccc([N+](=O)[O-])cc4)nn1)c1ccccc12)[nH]c1ccccc13` (stereo not given), in assay [1], the IC50 was found to be 2.13 µM.
In [2], `[N-]=[N+]=NCC(=O)NCCNc1ccnc2cc(Cl)ccc12` returned an IC50 of 0.0387 µM.
`Cc1ccc(Cn2cc(CN3C(=O)C4(C(C#N)=C(N)Oc5cc6c(cc54)[nH]c4ccccc46)c4cc(F)ccc43)nn2)cc1` (stereo not given): the half-inhibitory concentration (IC50) in assay [3] amounted to 3.35 µM.
On to `COc1ccc2cccc(-c3cn(CCCOC(=O)C4=C(Cl)c5cc(C)c(C)cc5CCC4)nn3)c2c1`, for which the IC50 was 1.61 µM in assay [4] and less than 0.01 µM in assay [5].
Turning to `CCC(C)n1cc(CN2C(=O)C3(C(C#N)=C(N)Oc4cc5c(cc43)[nH]c3ccccc35)c3ccccc32)nn1` (stereo not given), the IC50 in [6] was 2.13 µM.
Turning to `COc1ccc2nc(Cl)c(C(=O)NCc3cn(CC(=O)c4ccc(F)cc4)nn3)cc2c1`, the MIC in assay [7] is 1.6 mg/L (≈ 3.53 µM).
In the case of `O=C1C(=O)N(CCn2cc(COCCOc3ccc(/C(=C(/CCCl)c4ccccc4)c4ccccc4)cc3)nn2)c2c(Br)cc(Br)cc21`, in assay [8], the “Ratio IC50” value turned out to be 30.
Regarding `O=C1C(=O)N(CCCn2cc(COCCOc3ccc(/C(=C(/CCCl)c4ccccc4)c4ccccc4)cc3)nn2)c2c(Br)cc(Br)cc21`, the IC50 in assay [9] was 16.5 µM.
Consider `NC(=O)N/N=C/c1ccccc1OCc1cn(-c2ccc(Br)cc2)nn1`, for which the MIC in [10] (setting [24]) was 60.2 µM (≈ 25 µg/mL).
For the molecule `O=C(Cn1cc(-c2ccccc2)nn1)Nc1ccc(F)cc1`, the MIC in assay [11], in assay [12], in assay [13], in assay [14], in [10] and in [15] was 0.201 umol/cm3 throughout.
`O=C1C(=O)N(CCCCn2cc(COCCOc3ccc(/C(=C(/CCCl)c4ccccc4)c4ccccc4)cc3)nn2)c2c(Br)cc(Br)cc21`: the IC50 in [9] stood at 11 µM.
As to `C#CCCO[C@@H]1O[C@@H]2O[C@]3(C)CC[C@H]4[C@H](C)CC[C@@H]([C@H]1C)[C@@]24OO3`, the IC50 came out at 0.215 mg/L (≈ 0.639 µM) in assay [16] and 8 mg/L (≈ 23.8 µM) in [17].
Regarding `O=C(CCl)NCCNc1ccnc2cc(Cl)ccc12`, the IC50 in [2] was found to be 0.0387 µM.
On to `CC(C)c1ccc(-c2cc(-c3ccc(Cl)cc3)nc(OCc3cn(CC(=O)O)nn3)c2C#N)cc1`, for which the MIC in assay [18] turned out to be 9.6 mg/L (≈ 19.7 µM); in assay [19] it was 9.6 mg/L (≈ 19.7 µM); in [20], 19.2 mg/L (≈ 39.3 µM).
Consider `Cc1cc(O)c(C(=O)/C=C/c2ccc(OCc3cn(Cc4ccc(Br)cc4)nn3)cc2)c(=O)o1`, for which the MIC in assay [11] (Bacillus subtilis, read-out: MIC) is 3 µM (≈ 1.57 µg/mL); in assay [12] (Candida albicans, read-out: MIC) it was 3 µM (≈ 1.57 µg/mL); in [13] (Staphylococcus epidermidis, read-out: MIC), 3 µM (≈ 1.57 µg/mL); in [14] (Aspergillus niger, read-out: MIC) it was 3 µM (≈ 1.57 µg/mL); in assay [10] (setting [24]), 3 µM (≈ 1.57 µg/mL); in assay [15] (Escherichia coli, read-out: MIC), 3 µM (≈ 1.57 µg/mL).
For `C[C@H]1[C@H](N=[N+]=[N-])O[C@@H]2O[C@]3(C)CC[C@H]4[C@H](C)CC[C@@H]1[C@@]24OO3`, the IC50 in [16] worked out at 0.066 mg/L (≈ 0.213 µM); in assay [17], 0.865 mg/L (≈ 2.8 µM). In assay [21], this molecule returned an Activity of 59%.
Consider `CCOC(=O)[C@H]1Cc2c([nH]c3ccccc23)CN1Cc1cn(CCCN2C(=O)C(=O)c3ccccc32)nn1`, for which, in [9], the IC50 came to 37.4 µM.
Regarding `O=C(Cn1cc(-c2ccccc2)nn1)Nc1ccccc1`, in assay [22], the MIC is on record as 0.0898 umol/cm3.
For the molecule `COc1cc2ncnc(Nc3ccc(Cn4cc(-c5ccccc5)nn4)cc3)c2cc1OC`, the concentration for half-maximal inhibition (IC50) in assay [23] was determined as 20.7 µM.
